Key:
Experiment in all cases: relative viability (nuclei count vs DMSO), 5 days (fraction); higher = more cells survive
BMX-IN-1 + Linsitinib = compound: C=CC(=O)Nc1cc(-n2c(=O)ccc3cnc4ccc(-c5ccc(NS(C)(=O)=O)cc5)cc4c32)ccc1C [BMX-IN-1] + C[C@]1(O)C[C@@H](c2nc(-c3ccc4ccc(-c5ccccc5)nc4c3)c3c(N)nccn32)C1 [Linsitinib] (partner 1 µM)
Method in brief: (§1)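 Relative viability divides the nuclei count in treated wells by that in vehicle wells. Lung cancer cell lines were seeded in 1536-well plates, dosed by pin tool the next day, and fixed and stained after 5 days in one step with final 0.05% Triton X-100, 1% formaldehyde and 1 ug/ml Hoechst. Dosing was a single drug or a fixed anchor-drug dose plus five library-drug doses (not always all listed) in √10 steps, and values are medians of duplicate plates imaged at 4×.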

PAC-1 + Phenformin = compound: C=CCc1cccc(/C=N/NC(=O)CN2CCN(Cc3ccccc3)CC2)c1O [PAC-1] + N=C(N)NC(=N)NCCc1ccccc1 [Phenformin] (partner 250 µM)
Method in brief: as §1

BMX-IN-1 + Palbociclib = compound: C=CC(=O)Nc1cc(-n2c(=O)ccc3cnc4ccc(-c5ccc(NS(C)(=O)=O)cc5)cc4c32)ccc1C [BMX-IN-1] + CC(=O)c1c(C)c2cnc(Nc3ccc(N4CCNCC4)cn3)nc2n(C2CCCC2)c1=O [Palbociclib] (partner 0.5 µM)
Method in brief: as §1

Ibrutinib + Crizotinib = compound: C=CC(=O)N1CCC[C@@H](n2nc(-c3ccc(Oc4ccccc4)cc3)c3c(N)ncnc32)C1 [Ibrutinib] + C[C@@H](Oc1cc(-c2cnn(C3CCNCC3)c2)cnc1N)c1c(Cl)ccc(F)c1Cl [Crizotinib] (partner 1 µM)
Method in brief: as §1

For SK-MES-1, the relative viability (BMX-IN-1 + Linsitinib; first compound 0.02 µM) was 1.11, the relative viability (BMX-IN-1 + Linsitinib; first compound 0.2 µM) was 1.06 and the relative viability (BMX-IN-1 + Linsitinib; first compound 0.6325 µM) was 1.15. It also gave a relative viability (BMX-IN-1 + Linsitinib; first compound 2 µM) of 1.07, a relative viability (PAC-1 + Phenformin; first compound 0.02 µM) of 0.638 and a relative viability (PAC-1 + Phenformin; first compound 0.06325 µM) of 0.661. For the same cell line, the relative viability (PAC-1 + Phenformin; first compound 0.2 µM) was 0.381, the relative viability (PAC-1 + Phenformin; first compound 2 µM) was 0.645 and the relative viability (BMX-IN-1 + Palbociclib; first compound 0.02 µM) was 0.303. The relative viability (BMX-IN-1 + Palbociclib; first compound 0.2 µM) was 0.333, the relative viability (BMX-IN-1 + Palbociclib; first compound 0.6325 µM) was 0.355 and the relative viability (BMX-IN-1 + Palbociclib; first compound 2 µM) was 0.271. The relative viability (Ibrutinib + Crizotinib; first compound 0.005 µM) was 0.984, the relative viability (Ibrutinib + Crizotinib; first compound 0.01581 µM) was 0.907 and the relative viability (Ibrutinib + Crizotinib; first compound 0.05 µM) was 1.02. The relative viability (Ibrutinib + Crizotinib; first compound 0.5 µM) was 0.555.
